The values below are quoted from earlier work in patent publication US12721834B2, “Combination treatment for Netherton syndrome” (Quoin Pharmaceuticals Inc., priority 2023, dated 2026).

For this series the following is noted: in vivo.

Turning to “Poly(vinylpyrrolidone/1-hexadecene) [PVPH]”, the dermal toxicity result is “no demonstrable dermal toxicity”.

Consider “Poly(vinylpyrrolidone/1-eicosene) [PVPE]”, for which the dermal toxicity result was “no demonstrable dermal toxicity”.
